Paper PMC5513037, “Examining the influence of specificity ligands and ATP-competitive ligands on the overall effectiveness of bivalent kinase inhibitors” (Proteome Science, 2017)

Legend:
Experiment in all cases: KAM-matrix competition in K562 lysate;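 for 0.001 uM KAM: median log10 fold change of treatment over DMSO control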;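 for 0.01 uM KAM: median log10 fold change of treatment over DMSO control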;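 for 0.1 uM KAM: median log10 fold change of treatment over DMSO control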;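 for 1 uM KAM: median log10 fold change of treatment over DMSO control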;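 for 10 uM KAM: median log10 fold change of treatment over DMSO control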
Format in all cases: binding
[1] = biological target: T1, CSNK2A1 (Homo sapiens, UniProt P68400)
T1 construct: endogenous in cells; host or cells: K562
Procedure: (§1) Supplement 12953_2017_125_MOESM1_ESM.zip/MS_Supp Info.xlsx, sheet "KAM" | column: 10 uM KAM; 1 uM KAM; 0.1 uM KAM; 0.01 uM KAM; 0.001 uM KAM; RB50

[2] = biological target: T2, IGF1R (Homo sapiens, UniProt P08069)
T2 construct: K562 cell pellets were thawed on ice and resuspended in cold Lysis buffer; endogenous in cells; host or cells: K562
Procedure: as §1

[3] = biological target: T3, RIPK2 (Homo sapiens, UniProt O43353)
T3 construct: endogenous in cells; host or cells: K562
Procedure: as §1

[4] = biological target: T4, SRPK1 (Homo sapiens, UniProt Q96SB4);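 for 0.001 uM KAM: median log10 fold change of treatment over DMSO control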;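 for 0.01 uM KAM: median log10 fold change of treatment over DMSO control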;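 for 0.1 uM KAM: median log10 fold change of treatment over DMSO control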;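 for 1 uM KAM: median log10 fold change of treatment over DMSO control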;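 for 10 uM KAM: median log10 fold change of treatment over DMSO control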
T4 construct: endogenous in cells; host or cells: K562
Procedure: as §1

[5] = biological target: T5, TTK (Homo sapiens, UniProt P33981);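 for 0.001 uM KAM: median log10 fold change of treatment over DMSO control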;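 for 0.01 uM KAM: median log10 fold change of treatment over DMSO control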;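 for 0.1 uM KAM: median log10 fold change of treatment over DMSO control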;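 for 1 uM KAM: median log10 fold change of treatment over DMSO control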;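 for 10 uM KAM: median log10 fold change of treatment over DMSO control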
T5 construct: endogenous in cells; host or cells: K562
T5 sequence (P33981 1-857): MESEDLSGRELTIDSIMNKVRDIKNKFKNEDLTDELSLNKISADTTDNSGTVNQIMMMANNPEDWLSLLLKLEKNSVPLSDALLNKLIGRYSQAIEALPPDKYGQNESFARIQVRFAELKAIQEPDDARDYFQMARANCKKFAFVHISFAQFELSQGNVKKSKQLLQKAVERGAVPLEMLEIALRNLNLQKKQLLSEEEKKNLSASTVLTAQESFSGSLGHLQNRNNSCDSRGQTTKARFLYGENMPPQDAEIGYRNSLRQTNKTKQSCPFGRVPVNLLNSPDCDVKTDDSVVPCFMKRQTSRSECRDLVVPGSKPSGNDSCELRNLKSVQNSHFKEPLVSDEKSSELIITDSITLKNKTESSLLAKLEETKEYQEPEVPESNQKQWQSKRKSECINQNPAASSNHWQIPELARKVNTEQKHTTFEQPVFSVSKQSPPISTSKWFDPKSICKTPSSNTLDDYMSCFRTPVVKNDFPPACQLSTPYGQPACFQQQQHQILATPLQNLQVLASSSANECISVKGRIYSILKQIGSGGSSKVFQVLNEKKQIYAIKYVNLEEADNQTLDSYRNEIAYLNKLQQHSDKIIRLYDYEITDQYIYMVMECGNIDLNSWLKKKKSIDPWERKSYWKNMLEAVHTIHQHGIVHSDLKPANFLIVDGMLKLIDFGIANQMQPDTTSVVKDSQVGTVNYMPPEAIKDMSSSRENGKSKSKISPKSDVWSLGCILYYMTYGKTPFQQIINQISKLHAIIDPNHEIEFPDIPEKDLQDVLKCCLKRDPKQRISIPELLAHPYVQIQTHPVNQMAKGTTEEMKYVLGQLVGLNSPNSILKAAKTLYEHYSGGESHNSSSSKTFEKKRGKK
Procedure: as §1

[6] = read-out: RB50 (the source's name)
[7] = KAM 0.001-10 uM, read-out: RB50 (the source's name)

T4 sequence (Q96SB4 whole entry): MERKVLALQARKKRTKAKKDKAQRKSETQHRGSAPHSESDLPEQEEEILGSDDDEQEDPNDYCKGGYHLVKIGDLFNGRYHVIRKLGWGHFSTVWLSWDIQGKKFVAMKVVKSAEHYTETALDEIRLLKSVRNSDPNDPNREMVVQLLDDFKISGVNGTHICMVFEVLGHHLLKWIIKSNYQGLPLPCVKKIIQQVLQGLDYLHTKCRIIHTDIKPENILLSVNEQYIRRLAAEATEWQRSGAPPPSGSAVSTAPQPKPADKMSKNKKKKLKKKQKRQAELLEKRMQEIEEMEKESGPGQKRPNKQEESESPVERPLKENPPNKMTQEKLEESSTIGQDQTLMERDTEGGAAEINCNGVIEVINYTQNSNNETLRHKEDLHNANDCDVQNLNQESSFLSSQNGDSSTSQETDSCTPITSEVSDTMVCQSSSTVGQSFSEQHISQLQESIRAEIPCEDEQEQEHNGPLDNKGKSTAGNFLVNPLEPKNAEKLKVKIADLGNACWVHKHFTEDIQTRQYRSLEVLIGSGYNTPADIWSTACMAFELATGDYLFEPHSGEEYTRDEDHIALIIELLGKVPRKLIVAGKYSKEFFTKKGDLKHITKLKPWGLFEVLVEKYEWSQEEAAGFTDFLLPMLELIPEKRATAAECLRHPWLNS
T3 sequence (O43353 whole entry): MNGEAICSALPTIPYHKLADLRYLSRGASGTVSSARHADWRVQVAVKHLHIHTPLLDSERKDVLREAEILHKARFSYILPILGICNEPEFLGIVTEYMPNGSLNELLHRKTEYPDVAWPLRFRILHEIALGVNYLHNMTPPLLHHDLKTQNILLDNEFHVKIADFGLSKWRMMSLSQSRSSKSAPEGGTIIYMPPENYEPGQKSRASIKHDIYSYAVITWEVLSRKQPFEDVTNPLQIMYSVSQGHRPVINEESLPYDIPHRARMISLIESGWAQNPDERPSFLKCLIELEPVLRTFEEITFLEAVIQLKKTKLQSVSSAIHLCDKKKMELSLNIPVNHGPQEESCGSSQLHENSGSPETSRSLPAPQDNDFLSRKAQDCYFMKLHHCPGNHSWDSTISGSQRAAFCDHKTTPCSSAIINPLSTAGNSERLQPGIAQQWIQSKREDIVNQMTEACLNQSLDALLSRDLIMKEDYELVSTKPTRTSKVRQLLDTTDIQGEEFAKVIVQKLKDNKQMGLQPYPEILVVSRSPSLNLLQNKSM
T2 sequence (P08069 741-1367 limits assumed): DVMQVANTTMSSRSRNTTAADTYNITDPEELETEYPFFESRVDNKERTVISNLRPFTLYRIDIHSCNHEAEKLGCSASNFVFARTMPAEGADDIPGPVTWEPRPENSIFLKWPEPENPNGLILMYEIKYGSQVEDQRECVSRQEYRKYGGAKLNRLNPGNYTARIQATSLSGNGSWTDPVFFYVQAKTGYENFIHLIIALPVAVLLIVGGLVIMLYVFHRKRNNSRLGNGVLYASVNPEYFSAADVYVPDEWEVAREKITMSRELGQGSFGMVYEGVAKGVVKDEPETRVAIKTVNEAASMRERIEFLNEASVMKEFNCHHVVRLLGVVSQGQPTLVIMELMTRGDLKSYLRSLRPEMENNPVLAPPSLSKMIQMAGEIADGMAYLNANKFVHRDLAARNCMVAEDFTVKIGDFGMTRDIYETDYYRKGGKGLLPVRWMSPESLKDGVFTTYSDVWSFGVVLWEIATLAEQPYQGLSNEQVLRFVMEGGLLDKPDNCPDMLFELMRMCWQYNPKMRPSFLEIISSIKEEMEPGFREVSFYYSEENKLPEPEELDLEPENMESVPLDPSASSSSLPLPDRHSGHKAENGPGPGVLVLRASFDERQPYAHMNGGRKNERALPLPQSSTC
T2 sequence (P08069 31-736 partner limits assumed): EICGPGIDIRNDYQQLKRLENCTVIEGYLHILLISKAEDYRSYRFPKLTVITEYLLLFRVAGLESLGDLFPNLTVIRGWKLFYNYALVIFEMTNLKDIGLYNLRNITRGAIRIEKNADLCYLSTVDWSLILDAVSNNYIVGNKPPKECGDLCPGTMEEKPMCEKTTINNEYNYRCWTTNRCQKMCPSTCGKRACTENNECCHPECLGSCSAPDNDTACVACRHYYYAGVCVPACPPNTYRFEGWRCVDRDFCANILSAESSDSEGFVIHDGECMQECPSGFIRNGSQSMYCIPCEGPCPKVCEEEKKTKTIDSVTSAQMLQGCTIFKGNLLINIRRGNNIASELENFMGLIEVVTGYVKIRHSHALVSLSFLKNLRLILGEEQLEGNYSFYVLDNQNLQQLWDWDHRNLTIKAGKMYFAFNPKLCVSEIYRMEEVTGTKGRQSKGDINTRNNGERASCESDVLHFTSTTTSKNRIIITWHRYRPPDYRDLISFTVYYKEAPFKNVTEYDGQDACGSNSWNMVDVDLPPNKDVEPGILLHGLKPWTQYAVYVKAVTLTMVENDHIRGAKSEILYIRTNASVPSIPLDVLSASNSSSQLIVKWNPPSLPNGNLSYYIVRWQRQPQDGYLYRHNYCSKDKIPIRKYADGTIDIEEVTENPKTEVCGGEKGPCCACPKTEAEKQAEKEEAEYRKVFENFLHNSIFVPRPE
T1 sequence (P68400 whole entry): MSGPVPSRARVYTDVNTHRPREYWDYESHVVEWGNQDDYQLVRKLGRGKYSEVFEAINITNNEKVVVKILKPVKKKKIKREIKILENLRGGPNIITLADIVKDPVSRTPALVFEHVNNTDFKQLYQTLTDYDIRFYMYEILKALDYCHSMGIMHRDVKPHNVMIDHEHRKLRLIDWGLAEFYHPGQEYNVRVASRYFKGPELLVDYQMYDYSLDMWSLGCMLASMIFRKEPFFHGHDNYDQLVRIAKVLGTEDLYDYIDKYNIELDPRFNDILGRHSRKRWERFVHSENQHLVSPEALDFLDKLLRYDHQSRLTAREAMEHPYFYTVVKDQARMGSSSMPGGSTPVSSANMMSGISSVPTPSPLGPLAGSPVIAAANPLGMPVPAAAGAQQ

N#CCc1ccc(Nc2nc(NCCCN)cc(Nc3cc(C4CC4)[nH]n3)n2)cc1 [KAM]
median Log10 fold change ([1]; 0.001 uM KAM): -0.001285 | median Log10 fold change ([1]; 0.01 uM KAM): -0.02001 | median Log10 fold change ([1]; 0.1 uM KAM): -0.3204 | median Log10 fold change ([1]; 1 uM KAM): -0.6577 | median Log10 fold change ([1]; 10 uM KAM): -0.7357 | IC50 [1, 6]: 117 nM | median Log10 fold change ([2]; 0.001 uM KAM): -0.01905 | median Log10 fold change ([2]; 0.01 uM KAM): -0.03637 | median Log10 fold change ([2]; 0.1 uM KAM): -0.1832 | median Log10 fold change ([2]; 1 uM KAM): -0.3556 | median Log10 fold change ([2]; 10 uM KAM): -0.4489 | IC50 [2, 6]: 696 nM | median Log10 fold change ([3]; 0.001 uM KAM): 0.003964 | median Log10 fold change ([3]; 0.01 uM KAM): -0.006424 | median Log10 fold change ([3]; 0.1 uM KAM): -0.0711 | median Log10 fold change ([3]; 1 uM KAM): -0.241 | median Log10 fold change ([3]; 10 uM KAM): -0.4874 | IC50 [3, 6]: 1860 nM | IC50 [4, 7]: > 10000 nM | 0.001 uM KAM ([4]; relative to 0 uM KAM = 0): -0.01052 | 0.01 uM KAM ([4]; relative to 0 uM KAM = 0): -0.04054 | 0.1 uM KAM ([4]; relative to 0 uM KAM = 0): 0.02779 | 1 uM KAM ([4]; relative to 0 uM KAM = 0): -0.002878 | 10 uM KAM ([4]; relative to 0 uM KAM = 0): -0.01305 | IC50 [5, 7]: > 10000 nM | 0.001 uM KAM ([5]; relative to 0 uM KAM = 0): -0.02414 | 0.01 uM KAM ([5]; relative to 0 uM KAM = 0): 0.009793 | 0.1 uM KAM ([5]; relative to 0 uM KAM = 0): -0.08807 | 1 uM KAM ([5]; relative to 0 uM KAM = 0): -0.1446 | 10 uM KAM ([5]; relative to 0 uM KAM = 0): -0.2103
